Key:
[1] = target: T1, Piezo channels in red blood cells (Mus musculus, UniProt E2JF22); assay: Red blood cell (RBC) Ca2+ flux by flow cytometry; format: cell-based; conditions: 10 uM Yoda1, 17-23 weeks of age
T1 construct: from tissue; host or cells: red blood cells from blood of 5xFAD transgenic mice and wild-type controls
Experimental: The blood samples (50-100 μl) were collected from 5xFAD mice at different ages (13-15 weeks, 15-17 weeks, 17-19 weeks, 19-21 weeks and 21-23 weeks of age) for analysis of RBC Ca2 flux. Shortly, the blood samples were collected in Eppendorf tubes with sodium citrate to prevent coagulation. Then the samples were filtered through 100 μm filters to remove possible contaminants and aggregates, followed by two times wash with PBS (5 mins, 300g, RT) to remove plasma. 50 μl of red blood cells were transferred to dean tube and resuspended in 200 μl PBS (250 μl total volume of cell suspension). 250 μl of Fluo4 stock solution was added and cells were incubated for 30 minutes at 37° C. in dark. […] The Ca2+ flux was recorded by CytoFlex at high 60 μl/min flow rate. Recording was started at 20 sec run after the flow rate is stabilized, After 20 sec recording (baseline fluorescence), the Yoda1 at final concentration 10 μM was applied, at 4 min 20 sec time point (4 minutes after Yoda1 is added) ionomycin at 10 μM final concentration is added as positive control and sample is continued running until 6 min were up. Mean fluorescence intensity was measured using gates at different time points—baseline (before application of Yoda1 10 μM), at 1 min, 2 min, 3 min, at 4 min of recording. […]
The samples were recorded for 6 minutes. […]

[2] = tested on: hiPSC-microglia; assay: Cytotoxicity assay (Cytotox Green, Incucyte S3); format: cell-based; conditions: 2-20 μM Yoda1, 60-hour time point, n=3 experiments
Experimental: Cytotoxicity assay. The cytotoxicity of in vitro cultures was assessed with Cytotox Green assay (Essen Bioscience) using Incucyte S3 Live-Cell Analysis System (Essen Bioscience, Ann Arbor, Mich., USA, #4647). Microglia were seeded for the assay at density of 15 000 cells per well on poly-D-lysine (PDL, Sigma, #P0899) coated Nunclon (Thermo Scientific, #167008) or ImageLock 96-well plates (Essen Bioscience, #4379). On the assay day, cells were treated with 0.1-20 μM Yoda1 (Tocris, #5586) in PM medium supplemented with 250 nM Cytotox Green reagent (Essen Bioscience, #4633). Equal volume of DMSO (Sigma, #D2650) was used as a vehicle and 200 μM MPP+(Sigma, #D048) was applied as a positive control. Cells were live-imaged in IncuCyte S3 at 37° C. and 5% CO2 every 3 hours for 3 days to obtain cell death over time. One to two 10× images per well were captured using the phase-contrast mode to obtain confluency and the green fluorescence mode to obtain fluorescent intensity. Quantification was performed using IncuCyte S3 Software (2019B). Green fluorescence was separated from background with a top-hat thresholding and all settings were kept constant between different conditions. […]

T1 sequence (E2JF22 whole entry): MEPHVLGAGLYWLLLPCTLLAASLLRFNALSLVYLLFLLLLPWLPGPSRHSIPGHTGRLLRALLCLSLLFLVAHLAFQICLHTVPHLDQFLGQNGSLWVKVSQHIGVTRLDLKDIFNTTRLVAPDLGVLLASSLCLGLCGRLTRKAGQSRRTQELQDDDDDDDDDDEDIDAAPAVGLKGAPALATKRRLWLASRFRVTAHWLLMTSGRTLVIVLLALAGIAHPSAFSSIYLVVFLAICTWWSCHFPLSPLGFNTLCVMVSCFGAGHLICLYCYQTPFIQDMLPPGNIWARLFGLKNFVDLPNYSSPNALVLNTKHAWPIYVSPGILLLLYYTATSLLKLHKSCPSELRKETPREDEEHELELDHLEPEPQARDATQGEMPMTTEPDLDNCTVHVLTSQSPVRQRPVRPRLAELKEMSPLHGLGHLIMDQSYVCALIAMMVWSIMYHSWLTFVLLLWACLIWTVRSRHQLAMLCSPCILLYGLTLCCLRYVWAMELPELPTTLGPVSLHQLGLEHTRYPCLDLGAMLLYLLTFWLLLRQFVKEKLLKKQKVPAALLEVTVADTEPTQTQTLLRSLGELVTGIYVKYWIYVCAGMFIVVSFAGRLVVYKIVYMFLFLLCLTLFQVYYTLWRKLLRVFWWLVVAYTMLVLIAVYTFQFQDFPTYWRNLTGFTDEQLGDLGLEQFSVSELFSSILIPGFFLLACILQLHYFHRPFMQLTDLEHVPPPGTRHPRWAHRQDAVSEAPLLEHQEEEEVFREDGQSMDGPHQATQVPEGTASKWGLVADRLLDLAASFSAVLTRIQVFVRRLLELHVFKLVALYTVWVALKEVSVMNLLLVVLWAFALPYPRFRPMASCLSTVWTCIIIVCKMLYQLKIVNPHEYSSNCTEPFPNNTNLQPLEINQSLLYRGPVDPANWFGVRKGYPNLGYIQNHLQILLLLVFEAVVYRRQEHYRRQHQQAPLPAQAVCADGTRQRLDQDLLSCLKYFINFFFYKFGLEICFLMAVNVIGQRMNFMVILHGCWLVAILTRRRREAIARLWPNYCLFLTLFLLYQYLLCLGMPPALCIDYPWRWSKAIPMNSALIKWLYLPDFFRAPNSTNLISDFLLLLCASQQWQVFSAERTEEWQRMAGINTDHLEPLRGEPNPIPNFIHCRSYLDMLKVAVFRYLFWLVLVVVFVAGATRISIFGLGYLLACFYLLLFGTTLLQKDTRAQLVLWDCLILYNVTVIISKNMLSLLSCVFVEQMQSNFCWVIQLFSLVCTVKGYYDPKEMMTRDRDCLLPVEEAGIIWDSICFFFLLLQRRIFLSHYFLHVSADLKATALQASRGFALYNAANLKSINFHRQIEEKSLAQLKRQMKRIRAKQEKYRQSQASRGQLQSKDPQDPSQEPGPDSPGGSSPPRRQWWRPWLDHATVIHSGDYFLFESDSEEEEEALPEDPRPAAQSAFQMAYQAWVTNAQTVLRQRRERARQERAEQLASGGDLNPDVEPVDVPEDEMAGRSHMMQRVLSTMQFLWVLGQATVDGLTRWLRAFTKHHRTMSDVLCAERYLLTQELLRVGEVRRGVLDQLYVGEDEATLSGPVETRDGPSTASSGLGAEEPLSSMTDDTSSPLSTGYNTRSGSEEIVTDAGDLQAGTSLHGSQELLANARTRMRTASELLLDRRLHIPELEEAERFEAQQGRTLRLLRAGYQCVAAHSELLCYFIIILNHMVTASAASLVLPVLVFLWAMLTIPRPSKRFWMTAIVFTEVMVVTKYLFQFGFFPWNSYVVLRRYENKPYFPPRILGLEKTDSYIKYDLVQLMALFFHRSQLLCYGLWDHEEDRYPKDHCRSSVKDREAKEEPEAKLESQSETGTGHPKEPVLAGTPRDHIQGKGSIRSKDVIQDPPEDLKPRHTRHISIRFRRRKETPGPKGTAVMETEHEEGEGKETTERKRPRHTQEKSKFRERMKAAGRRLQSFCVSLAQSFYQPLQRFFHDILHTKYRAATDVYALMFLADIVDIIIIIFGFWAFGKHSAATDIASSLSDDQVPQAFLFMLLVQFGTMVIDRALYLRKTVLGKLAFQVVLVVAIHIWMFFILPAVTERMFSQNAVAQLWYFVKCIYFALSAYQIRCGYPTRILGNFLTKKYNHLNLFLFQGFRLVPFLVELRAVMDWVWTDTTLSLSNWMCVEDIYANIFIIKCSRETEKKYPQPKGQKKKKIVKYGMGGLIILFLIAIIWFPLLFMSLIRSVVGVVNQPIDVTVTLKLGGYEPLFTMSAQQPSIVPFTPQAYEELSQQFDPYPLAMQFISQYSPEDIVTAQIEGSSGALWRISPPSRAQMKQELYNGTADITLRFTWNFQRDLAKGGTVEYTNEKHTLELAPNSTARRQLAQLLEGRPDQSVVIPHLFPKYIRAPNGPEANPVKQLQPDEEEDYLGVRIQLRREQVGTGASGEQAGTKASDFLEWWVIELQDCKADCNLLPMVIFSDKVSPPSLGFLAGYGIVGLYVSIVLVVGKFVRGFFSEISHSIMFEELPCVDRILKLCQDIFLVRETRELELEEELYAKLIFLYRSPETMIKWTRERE

**Q.** Which results are given for `Clc1cccc(Cl)c1CSc1nnc(-c2cnccn2)s1` [Yoda1]?
**A.** Yoda1 elicited calcium responses in red blood cells, TG 5xFAD versus age-matched WT [1]: significantly lower; microglial cell death (cytotoxicity dye uptake) [2]: protects hiPSC-microglia from cell death

Source: US20220265646A1, “PIEZO AGONISTS FOR PREVENTING OR REVERTING ABNORMAL AMYLOID DEPOSITION” (ITÄ-SUOMEN YLIOPISTO, priority 2019, published 2022)
